Measured values reported in US9096596B2 (Janssen Pharmaceutica NV, priority 2013, dated 2015).

Experiments:
rat P2X7 [1] = target: T1, rat P2X7 (Rattus norvegicus (Rat), UniProt Q64663); assay: Ca2+ flux (FLIPR) in 1321N1 cells expressing recombinant rat P2X7 channel; type: cell-based; conditions: 250 μM BzATP, Calcium-4 dye
Summary of the method: (§1)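 1321N1 cells stably expressing P2X7 were loaded with Calcium-4 dye for 60 min in HEPES-buffered saline (pH 7.40, 1 mM CaCl2, 1 mM MgCl2), then preincubated with test compounds for 30 min. Fluorescence change was read 180 s after agonist addition.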

P2X7 [2] = target: T2, P2X7 (Homo sapiens (Human), UniProt Q99572); assay: Ca2+ flux (FLIPR) in 1321N1 cells expressing recombinant human P2X7 channel; type: cell-based; conditions: 250 μM BzATP, Calcium-4 dye
T2 sequence (Q99572 whole entry): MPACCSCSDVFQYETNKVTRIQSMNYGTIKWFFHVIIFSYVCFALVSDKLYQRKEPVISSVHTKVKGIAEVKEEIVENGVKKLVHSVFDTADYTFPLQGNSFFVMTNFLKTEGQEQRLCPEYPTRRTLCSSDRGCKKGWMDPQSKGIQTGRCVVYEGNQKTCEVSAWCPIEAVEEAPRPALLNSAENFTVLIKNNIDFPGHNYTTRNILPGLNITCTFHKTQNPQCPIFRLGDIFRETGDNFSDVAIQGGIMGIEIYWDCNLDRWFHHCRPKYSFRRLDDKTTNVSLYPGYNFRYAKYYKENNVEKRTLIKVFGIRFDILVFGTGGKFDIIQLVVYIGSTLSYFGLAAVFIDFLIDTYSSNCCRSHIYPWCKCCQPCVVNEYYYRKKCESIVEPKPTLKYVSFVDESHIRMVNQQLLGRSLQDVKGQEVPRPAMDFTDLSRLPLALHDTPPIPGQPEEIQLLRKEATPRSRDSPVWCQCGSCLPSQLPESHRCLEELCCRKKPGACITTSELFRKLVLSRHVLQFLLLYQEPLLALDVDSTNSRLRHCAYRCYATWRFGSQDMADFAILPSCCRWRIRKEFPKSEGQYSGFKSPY
Summary of the method: as §1

rat P2X7 [3] = target: T1, rat P2X7; assay: Radioligand binding, rat P2X7-1321N1 cell membranes, tracer tritiated A-804598; conditions: rat P2X7-1321N1 membranes; 1 hour at 4° C.; IC50 corrected for tracer concentration and affinity
Procedure: (§2) On the day of the experiment, cell membrane preparations were made according to standard published methods. […] The compound can be prepared as described in the literature. […] The assay was terminated by filtration (GF/B filters pre-soaked with 0.3% PEI) and washed with washing buffer (Tris-HCl 50 mM). The IC50 generated in the binding assay was corrected for tracer concentration and affinity of the tracer to derive at the affinity (Ki) of the test compounds.

P2X7 [4] = target: T2, P2X7; assay: Radioligand binding, human P2X7-1321N1 cell membranes, tracer tritiated A-804598; conditions: human P2X7-1321N1 membranes; 1 hour at 4° C.; IC50 corrected for tracer concentration and affinity
Procedure: as §2

P2X7 [5] = target: T2, P2X7; assay: P2X7 antagonism in human whole blood (IL-1β release, ELISA); type: cell-based; conditions: IL-1β release in human blood, LPS 30 ng/ml + Bz-ATP 1 mM
Procedure: Human blood was collected using a blood donor program. […] Cells were incubated for an additional 1.5 hours.

P2X7 [6] = target: T2, P2X7; assay: P2X7 antagonism in human PBMCs (IL-1β release, ELISA); type: cell-based; conditions: test compound 10 μM, IL-1β release in human PBMCs, LPS 30 ng/ml + Bz-ATP 0.5 mM, read-out: PBMC 10 μM (% control)
Procedure: Human blood was collected using a blood donor program. […] Cells were incubated for an additional 1.5 hours. […] In Table 2, when the data cell has been left blank, it is intended to mean that the compound was not tested in that assay.

T1 sequence (Q64663 whole entry): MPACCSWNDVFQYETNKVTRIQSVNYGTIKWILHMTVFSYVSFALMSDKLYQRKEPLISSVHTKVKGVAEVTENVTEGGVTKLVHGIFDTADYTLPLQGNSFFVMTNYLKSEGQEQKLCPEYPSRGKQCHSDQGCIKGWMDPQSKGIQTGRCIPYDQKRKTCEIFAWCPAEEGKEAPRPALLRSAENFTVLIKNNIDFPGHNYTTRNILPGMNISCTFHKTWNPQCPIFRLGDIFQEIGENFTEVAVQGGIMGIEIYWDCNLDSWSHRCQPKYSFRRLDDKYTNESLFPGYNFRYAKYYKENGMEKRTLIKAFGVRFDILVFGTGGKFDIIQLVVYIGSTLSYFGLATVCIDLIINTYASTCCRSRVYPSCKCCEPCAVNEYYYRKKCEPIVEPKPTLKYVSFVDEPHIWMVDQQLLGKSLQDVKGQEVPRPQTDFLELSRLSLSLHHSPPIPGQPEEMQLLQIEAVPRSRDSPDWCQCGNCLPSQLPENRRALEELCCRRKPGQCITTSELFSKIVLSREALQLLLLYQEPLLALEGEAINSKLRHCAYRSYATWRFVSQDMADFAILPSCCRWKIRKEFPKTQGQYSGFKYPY

| IC50 (rat P2X7 [1]) | IC50 (P2X7 [2]) | Ki (rat P2X7 [3]) | Ki (P2X7 [4]) | IC50 (P2X7 [5]) | remaining activity at 10 µM (P2X7 [6]) | Structure (SMILES) |
| --- | --- | --- | --- | --- | --- | --- |
| 2480 nM | 4.5 nM | 24 nM | 9.5 nM | 1120 nM | – | O=C(c1cccc(Cl)c1Cl)N1CCc2c(ncnc2-n2nccn2)C1 [Example 107, 7-[(2,3-Dichlorophenyl)carbonyl]-4-(2H-1,2,3-triazol-2-yl)-5,6,7,8-tetrahydropyrido[3,4-d]pyrimidine] |
| 5970 nM | 28.1 nM | 57.5 nM | 58.9 nM | 2000 nM | – | O=C(c1cccc(C(F)(F)F)c1Cl)N1CCc2c(ncnc2-c2ccccn2)C1 [Example 12, 7-{[2-Chloro-3-(trifluoromethyl)phenyl]carbonyl}-4-pyridin-2-yl-5,6,7,8-tetrahydropyrido[3,4-d]pyrimidine] |
| 338 nM | 5.9 nM | 3.5 nM | 25.1 nM | 1230 nM | -0.2% | O=C(c1ccc(Cl)c(F)c1Cl)N1CCc2c(ncnc2-c2ccn[nH]2)C1 [Example 20, 7-[(2,4-Dichloro-3-fluorophenyl)carbonyl]-4-(1H-pyrazol-5-yl)-5,6,7,8-tetrahydropyrido[3,4-d]pyrimidine] |
| 489 nM | 20.7 nM | 14.5 nM | 15.4 nM | 560 nM | – | O=C(c1cccc(Cl)c1Cl)N1CCc2c(ncnc2-c2ccn[nH]2)C1 [Example 7, 7-[(2,3-Dichlorophenyl)carbonyl]-4-(1H-pyrazol-5-yl)-5,6,7,8-tetrahydropyrido[3,4-d]pyrimidine] |
| 1110 nM | 8 nM | 12 nM | 16.4 nM | 1120 nM | – | Cc1nc2c(c(-c3ccn[nH]3)n1)CCN(C(=O)c1cccc(C(F)(F)F)c1Cl)C2 [Example 33, 7-{[2-Chloro-3-(trifluoromethyl)phenyl]carbonyl}-2-methyl-4-(1H-pyrazol-5-yl)-5,6,7,8-tetrahydropyrido[3,4-d]pyrimidine] |
| 9.9 nM | 26.1 nM | – | 25.1 nM | 630 nM | 13.8% | Cn1ccc(-c2ncnc3c2CCN(C(=O)c2cccc(C(F)(F)F)c2Cl)C3)n1 [Example 19, 7-{[2-Chloro-3-(trifluoromethyl)phenyl]carbonyl}-4-(1-methyl-1H-pyrazol-3-yl)-5,6,7,8-tetrahydropyrido[3,4-d]pyrimidine] |
